Values joined by “and” are separate entries in the source; they are usually repeats but may differ in a detail not shown here. Equal entries are not always repeated. Where two headings read alike, the source gives them in different places.
How the values were obtained:
HIV = format: cell-based; details: for duration of action: cell culture, cysteamine re-added every 12 hours, WR-1065 added once in a 72 hour period
[1] = rhesus macaques, cited from earlier work
Ad7-p (strain Gomen) = assay: Infectious virus yield in A549 cell monolayers, Ad7-p; format: cell-based, adenovirus species B
Ad4-p (strain RI-67) = assay: Infectious virus yield in A549 cell monolayers, Ad4-p; format: cell-based, adenovirus species E
PHA blasts = assay: Viability of PHA blasts exposed to WR-1065; format: cell-based, Human; details: uninfected PHA blasts
Adenovirus 5p = assay: Plaque reduction assay in A549 cells; format: cell-based
[2] = test system: Ad5-p (strain Adenoid 75); assay: Infectious virus yield in A549 cell monolayers, Ad5-p; format: cell-based, adenovirus species C
A/HKx31 (H3N2) = format: cell-based, influenza A
[3] = in vivo; cited from earlier work
[4] = mouse, in vivo; cited from earlier work
[5] = mouse, in vivo, cited from earlier work
[6] = Experiment #1, 10 μM AZT, 72 hours
[7] = Experiment #1, 1000 μM WR1065, 72 hours

SMILES: Cc1cn([C@H]2C[C@H](N=[N+]=[N-])[C@@H](CO)O2)c(=O)[nH]c1=O [AZT, Zidovudine]
- Estimated percent viral inhibition (HIV; [6]): ~100%
- HIV P24 (HIV; [6]): 0.13 pg/mL
- Estimated percent viral inhibition (HIV; Experiment #3, 10 μM AZT): ~100%
- HIV P24 (HIV; Experiment #3, 10 μM AZT): 2.9 pg/mL

SMILES: NCCCNCCS [WR-1065, 2-(3-aminopropylamino)ethanethiol]
- Estimated percent viral inhibition (HIV; [7]): ~100%
- HIV P24 (HIV; [7]): 0.13 pg/mL
- suppression of HIV replication (HIV; WR-1065 at a concentration of less than 100 μM): > 99.9%
- duration of action (HIV): long duration of action
- in vitro anti-HIV activity relative to cysteamine (HIV; compared by effective concentration): over 2 fold
- Concentration (plasma) ([1]; 1 h after duodenal administration of 150 mg/kg BW of parent drug): 6210 ng/mL
- Concentration (plasma) ([1]; 2 h after duodenal administration of 150 mg/kg BW of parent drug): 4140 ng/mL
- Concentration (plasma) ([1]; 6 h after duodenal administration of 150 mg/kg BW of parent drug): 2070 ng/mL
- Mean infectious virus yields 96-h post infection & WR 1065 treatment (Ad7-p (strain Gomen); Trial 1, <10 μM WR 1065): 1.85 PFUs × 10^6
- Mean infectious virus yields 96-h post infection & WR 1065 treatment (Ad7-p (strain Gomen); Trial 1, <33 μM WR 1065): 0.85 PFUs × 10^6
- Mean infectious virus yields 96-h post infection & WR 1065 treatment (Ad7-p (strain Gomen); Trial 1, <100 μM WR 1065): 1.15 PFUs × 10^6
- Mean infectious virus yields 96-h post infection & WR 1065 treatment (Ad7-p (strain Gomen); Trial 2, <100 μM WR 1065): 30.5 PFUs × 10^6
- Mean infectious virus yields 96-h post infection & WR 1065 treatment (Ad4-p (strain RI-67); Trial 1, <33 μM WR 1065): 1,420 PFUs × 10^6
- Mean infectious virus yields 96-h post infection & WR 1065 treatment (Ad4-p (strain RI-67); Trial 1, <100 μM WR 1065): 980 PFUs × 10^6
- Mean infectious virus yields 96-h post infection & WR 1065 treatment (Ad4-p (strain RI-67); Trial 2, <100 μM WR 1065): 9.5 PFUs × 10^6
- % Viable Cells (compared to control) (PHA blasts; 1 μM WR-1065, 72 hours): 83%
- % Viable Cells (compared to control) (PHA blasts; 5 μM WR-1065, 72 hours): 82%
- % Viable Cells (compared to control) (PHA blasts; 10 μM WR-1065, 72 hours): 90%
- % Viable Cells (compared to control) (PHA blasts; 50 μM WR-1065, 72 hours): 89%
- % Viable Cells (compared to control) (PHA blasts; 100 μM WR-1065, 72 hours): 63%
- % Viable Cells (compared to control) (PHA blasts; 500 μM WR-1065, 72 hours): 73%
- % Viable Cells (compared to control) (PHA blasts; 1000 μM WR-1065, 72 hours): 30%
- plaque number (plaque reduction assay) (Adenovirus 5p; 16.5 μM WR1065): 63
- plaque number (plaque reduction assay) (Adenovirus 5p; 50 μM WR1065): 41
- reduction of plaque number (Adenovirus 5p; 50 μM WR1065): 36%
- Mean infectious virus yields 96-h post infection & WR 1065 treatment ([2]; Trial 1, <10 μM WR 1065): 9.0 PFUs × 10^6
- Mean infectious virus yields 96-h post infection & WR 1065 treatment ([2]; Trial 1, <33 μM WR 1065): 5.65 PFUs × 10^6
- Mean infectious virus yields 96-h post infection & WR 1065 treatment ([2]; Trial 1, <100 μM WR 1065): 2.25 PFUs × 10^6
- Mean infectious virus yields 96-h post infection & WR 1065 treatment ([2]; Trial 2, <33 μM WR 1065): 600 PFUs × 10^6
- Mean infectious virus yields 96-h post infection & WR 1065 treatment ([2]; Trial 2, <100 μM WR 1065): 500 PFUs × 10^6
- Mean infectious virus yields 96-h post infection & WR 1065 treatment ([2]; Trial 3, <33 μM WR 1065): 1,660 PFUs × 10^6
- Mean plaque number (A/HKx31 (H3N2)): 59.3 and 57 and 48

SMILES: NCCCNCCSP(=O)(O)O [Amifostine, S-2-(3-aminopropyl)aminoethyl phosphorothioic acid]
- effects of single doses [3]: no untoward effects
- 100% effective radioprotective dose [4]: about one half
- maximally tolerated dose (MTD) ([5]; ip): 432 mg/kg BW
- maximally tolerated dose (MTD) ([5]; po): 720 mg/kg BW

SMILES: NCCS [cysteamine, Cysteamine]
- suppression of HIV replication (HIV; 200 μM cysteamine, in vitro assay system as described above): ~100%
- duration of action (HIV): very short

Reference: patent US9849143B2, “Broad spectrum antiviral and methods of use” (The Burlington HC Research Group, Inc., priority 2006, dated 2017)
